Laboratory results from patent US20210023111A1, “Novel Form of Invermectin and a Process for Making it” (Hovione Scientia Limited, priority 2018, published 2021).

Legend:
[1] = Solid-state stability of the amorphous form on storage (XRPD); assay type: physicochemical
Source text: By stable we mean that the amorphous form is maintained after a certain period of time under certain environmental conditions. We have data confirming that the product maintains its amorphous form at room temperature for at least 3.5 months.
X-ray diffraction (XRPD) analysis was made with PANalytical Empyrean equipped with copper tube and PIXel1D-Medpix3 detector (Malvern Panalytical, UK).

[2] = Water solubility by HPLC, amorphous vs crystalline ivermectin; assay type: physicochemical; conditions: for peak on the HPLC chromatogram (water solubility): LOD of the HPLC method
Source text: This confirms that the amorphous form is more water soluble than the known crystalline form.

| Substance | amorphous character after storage (XRPD, FIG. 7) ([1]; 3 months in the freezer followed by 3.5 months at room temperature (25° C.)) | time for which the product maintains its amorphous form ([1]; room temperature) | water solubility relative to the crystalline form [2] | peak on the HPLC chromatogram (water solubility) ([2]; listed as amorphous form) | peak on the HPLC chromatogram (water solubility) [2] |
| --- | --- | --- | --- | --- | --- |
| ivermectin [amorphous ivermectin] | amorphous character is maintained | at least 3.5 months | higher than its corresponding crystalline form | small, but visible peak | – |
| ivermectin [known crystalline form, reference compound] | – | – | – | – | no visible peak |
